Like-named read-outs stand apart in the source and are kept apart here. Each block holds one compound with its values, some of them ahead of it. Positions of bridges follow the written chain, without caps; N, C: chain ends. Non-standard residues stand in square brackets, D forms with d. Residues, ends and D or L forms follow the SMILES beside them. Groups on a side chain read outwards from the residue. *: point of attachment. X1 = O=C(O)CC[C@H](NC(=O)CN1CCN(CC(=O)O)CCN(CC(=O)O)CCN(CC(=O)O)CC1)C(=O)N[C@@H](CCCCNC(=O)CNC(=O)CCCc1ccc(F)cc1)C(=O)*; X2 = Cc1ccc(CCCC(=O)NCC(=O)NCCCC[C@H](NC(=O)[C@H](CCC(=O)O)NC(=O)CN2CCN(CC(=O)O)CCN(CC(=O)O)CCN(CC(=O)O)CC2)C(=O)*)cc1; 2Nal = N[C@@H](Cc1ccc2ccccc2c1)C(=O)O; Lys(iPr) = CC(C)NCCCC[C@H](N)C(=O)O
Assays:
[1] = Biodistribution in Daudi tumor-bearing mice; assay type: in vivo; details: male, NOD.Cg-Rag1^tm1MomII2rg^tm1Wjl/SzJ (NRG), mouse, iv, total radioactivity; for tissue uptake at 3 h: Daudi tumor-bearing mice; for tissue uptake at 1 h: Daudi xenograft bearing mice
Method: (§1) For Daudi, Z138, GRANTA519 and Jeko1 xenografts, male NOD.Cg-Rag1^tm1MomII2rg^tm1Wjl/SzJ (NRG) mice were subcutaneously inoculated on the left flank with 5×10^6 cells (100 μL; 1:1 ratio of PBS/Matrigel) and tumors were grown to a size of 200-500 mm^3. For PC-3 xenografts, male NOD.Cg-Rag1^tm1MomII2rg^tm1Wjl/SzJ (NRG) mice were subcutaneously inoculated on the left flank with 5×10^6 PC-3 cells (100 μL; 1:1 ratio of PBS/Matrigel) and tumors were grown to a size of 200-400 mm^3.
(§2) The mice were euthanized via CO2 inhalation while anesthetized with isoflurane. Tissues were harvested, washed in PBS, blotted dry, weighed, and measured on a Hidex AMG Automatic Gamma Counter.

[2] = system: Daudi Burkitt's lymphoma xenografts; test: Biodistribution in Daudi tumor-bearing mice; assay type: in vivo; details: for Ratio Tumor: Blood / Ratio Tumor: Bone / Ratio Tumor: Liver / Ratio Tumor: Lung / Ratio Tumor: Muscle / Ratio Tumor: Spleen: Daudi tumor-bearing mice, 3 h; for Ratio Tumour:Blood / Ratio Tumour:Bone / Ratio Tumour:Liver / Ratio Tumour:Lung / Ratio Tumour:Muscle / Ratio Tumour:Spleen: Daudi xenograft bearing mice, 1 h
Method: as §1, §2

[3] = Daudi tumor, read-out: Biodistribution Daudi (tumor)
[4] = Daudi tumour, read-out: Biodistribution Daudi (tumour)
[5] = adrenals, read-out: Biodistribution Adrenals
[6] = blood, read-out: Biodistribution Blood
[7] = bone, read-out: Biodistribution Bone
[8] = brain, read-out: Biodistribution Brain
[9] = fat, read-out: Biodistribution Fat
[10] = heart, read-out: Biodistribution Heart
[11] = intestine, read-out: Biodistribution Intestine
[12] = kidney, read-out: Biodistribution Kidney
[13] = liver, read-out: Biodistribution Liver
[14] = lung, read-out: Biodistribution Lung
[15] = muscle, read-out: Biodistribution Muscle
[16] = pancreas, read-out: Biodistribution Pancreas
[17] = spleen, read-out: Biodistribution Spleen
[18] = stomach, read-out: Biodistribution Stomach
[19] = testes, read-out: Biodistribution Testes

- tissue uptake at 3 h [1, 3]: 7.82 %ID/g
- tissue uptake at 1 h [1, 4]: 4.59 %ID/g
- tissue uptake at 3 h [1, 5]: 2.46 %ID/g
- tissue uptake at 1 h [1, 5]: 2.53 %ID/g
- tissue uptake at 3 h [1, 6]: 11.6 %ID/g
- tissue uptake at 1 h [1, 6]: 14.7 %ID/g
- tissue uptake at 3 h [1, 7]: 0.94 %ID/g
- tissue uptake at 1 h [1, 7]: 1.14 %ID/g
- tissue uptake at 3 h [1, 8]: 0.17 %ID/g
- tissue uptake at 1 h [1, 8]: 0.19 %ID/g
- tissue uptake at 3 h [1, 9]: 0.56 %ID/g
- tissue uptake at 1 h [1, 9]: 0.64 %ID/g
- tissue uptake at 3 h [1, 10]: 2.29 %ID/g
- tissue uptake at 1 h [1, 10]: 3.21 %ID/g
- tissue uptake at 3 h [1, 11]: 1 %ID/g
- tissue uptake at 1 h [1, 11]: 1.21 %ID/g
- tissue uptake at 3 h [1, 12]: 4.76 %ID/g
- tissue uptake at 1 h [1, 12]: 5.41 %ID/g
- tissue uptake at 3 h [1, 13]: 2.92 %ID/g
- tissue uptake at 1 h [1, 13]: 2.92 %ID/g
- tissue uptake at 3 h [1, 14]: 5.35 %ID/g
- tissue uptake at 1 h [1, 14]: 7.11 %ID/g
- tissue uptake at 3 h [1, 15]: 0.76 %ID/g
- tissue uptake at 1 h [1, 15]: 0.96 %ID/g
- tissue uptake at 3 h [1, 16]: 1.21 %ID/g
- tissue uptake at 1 h [1, 16]: 1.49 %ID/g
- tissue uptake at 3 h [1, 17]: 2.34 %ID/g
- tissue uptake at 1 h [1, 17]: 2.21 %ID/g
- tissue uptake at 3 h [1, 18]: 0.38 %ID/g
- tissue uptake at 1 h [1, 18]: 0.47 %ID/g
- tissue uptake at 3 h [1, 19]: 2.05 %ID/g
- tissue uptake at 1 h [1, 19]: 1.73 %ID/g
- Ratio Tumor: Blood [2]: 0.68
- Ratio Tumor: Bone [2]: 8.55
- Ratio Tumor: Liver [2]: 2.71
- Ratio Tumor: Lung [2]: 1.46
- Ratio Tumor: Muscle [2]: 10.49
- Ratio Tumor: Spleen [2]: 3.38
- Ratio Tumour:Blood [2]: 0.31
- Ratio Tumour:Bone [2]: 4.12
- Ratio Tumour:Liver [2]: 1.59
- Ratio Tumour:Lung [2]: 0.65
- Ratio Tumour:Muscle [2]: 4.82
- Ratio Tumour:Spleen [2]: 2.08
Structure (SMILES): Cc1ccc(CCCC(=O)NCC(=O)NCCCC[C@H](NC(=O)[C@H](CCC(=O)O)NC(=O)CN2CCN(CC(=O)O)CCN(CC(=O)O)CCN(CC(=O)O)CC2)C(=O)N[C@@H](CCC(=O)O)C(=O)NCCCC[C@H](NC(=O)[C@H](CCCCNC(C)C)NC(=O)[C@H]2CCC(=O)N[C@@H](Cc3ccccc3)C(=O)N[C@@H](Cc3ccc(O)cc3)C(=O)N[C@@H](CCCCNC(C)C)C(=O)N[C@H](CCCNC(=N)N)C(=O)N[C@@H](Cc3ccc4ccccc4c3)C(=O)NCC(=O)N2)C(N)=O)cc1 [[^68Ga]Ga-BL28, metal not drawn] (FY[Lys(iPr)][dR][2Nal]G[dE][Lys(iPr)]K([Glu-X2])-NH2; lactam N-7)

- tissue uptake at 3 h [1, 3]: 10.4 %ID/g
- tissue uptake at 1 h [1, 4]: 8.78 %ID/g
- tissue uptake at 3 h [1, 5]: 0.58 %ID/g
- tissue uptake at 1 h [1, 5]: 1.66 %ID/g
- tissue uptake at 3 h [1, 6]: 0.95 %ID/g
- tissue uptake at 1 h [1, 6]: 4.6 %ID/g
- tissue uptake at 3 h [1, 7]: 0.27 %ID/g
- tissue uptake at 1 h [1, 7]: 0.66 %ID/g
- tissue uptake at 3 h [1, 8]: 0.03 %ID/g
- tissue uptake at 1 h [1, 8]: 0.07 %ID/g
- tissue uptake at 3 h [1, 9]: 0.09 %ID/g
- tissue uptake at 1 h [1, 9]: 0.35 %ID/g
- tissue uptake at 3 h [1, 10]: 0.32 %ID/g
- tissue uptake at 1 h [1, 10]: 1.27 %ID/g
- tissue uptake at 3 h [1, 11]: 0.36 %ID/g
- tissue uptake at 1 h [1, 11]: 0.85 %ID/g
- tissue uptake at 3 h [1, 12]: 4.77 %ID/g
- tissue uptake at 1 h [1, 12]: 6.21 %ID/g
- tissue uptake at 3 h [1, 13]: 2.64 %ID/g
- tissue uptake at 1 h [1, 13]: 2.61 %ID/g
- tissue uptake at 3 h [1, 14]: 2.1 %ID/g
- tissue uptake at 1 h [1, 14]: 7.23 %ID/g
- tissue uptake at 3 h [1, 15]: 0.13 %ID/g
- tissue uptake at 1 h [1, 15]: 0.43 %ID/g
- tissue uptake at 3 h [1, 16]: 0.26 %ID/g
- tissue uptake at 1 h [1, 16]: 0.62 %ID/g
- tissue uptake at 3 h [1, 17]: 1.06 %ID/g
- tissue uptake at 1 h [1, 17]: 2.82 %ID/g
- tissue uptake at 3 h [1, 18]: 0.12 %ID/g
- tissue uptake at 1 h [1, 18]: 0.19 %ID/g
- tissue uptake at 3 h [1, 19]: 0.31 %ID/g
- tissue uptake at 1 h [1, 19]: 0.8 %ID/g
- Ratio Tumor: Blood [2]: 10.85
- Ratio Tumor: Bone [2]: 38.31
- Ratio Tumor: Liver [2]: 3.91
- Ratio Tumor: Lung [2]: 5.59
- Ratio Tumor: Muscle [2]: 83.68
- Ratio Tumor: Spleen [2]: 10.08
- Ratio Tumour:Blood [2]: 1.99
- Ratio Tumour:Bone [2]: 13.68
- Ratio Tumour:Liver [2]: 3.46
- Ratio Tumour:Lung [2]: 1.27
- Ratio Tumour:Muscle [2]: 21.47
- Ratio Tumour:Spleen [2]: 3.37
Structure (SMILES): CC(C)NCCCC[C@@H]1NC(=O)[C@H](Cc2ccc(O)cc2)NC(=O)[C@H](Cc2ccccc2)NC(=O)CC[C@H](C(=O)N[C@@H](CCCCNC(C)C)C(=O)N[C@@H](CCCCNC(=O)[C@H](CCC(=O)O)NC(=O)[C@H](CCCCNC(=O)CNC(=O)CCCc2ccc(F)cc2)NC(=O)[C@H](CCC(=O)O)NC(=O)CN2CCN(CC(=O)O)CCN(CC(=O)O)CCN(CC(=O)O)CC2)C(N)=O)NC(=O)CNC(=O)[C@H](Cc2ccc3ccccc3c2)NC(=O)[C@@H](CCCNC(=N)N)NC1=O [[^68Ga]Ga-BL27, metal not drawn] (FY[Lys(iPr)][dR][2Nal]G[dE][Lys(iPr)]K([Glu-X1])-NH2; lactam N-7)

Source: US20220218852A1, “NOVEL RADIOLABELLED CXCR4-TARGETING COMPOUNDS FOR DIAGNOSIS AND THERAPY” (PROVINCIAL HEALTH SERVICES AUTHORITY, priority 2019, published 2022)
